Results as given in the NIST ThermoML archive (doi:10.1016/j.fluid.2014.01.044).
± gives the expanded uncertainty stated by the source.

Assays:
[1] = 100.2 kPa, Liquid, Pycnometric method
[2] = xn = mol fraction of the nth substance listed; conditions: 100.2 kPa, Liquid, Pycnometric method

| mass density ([1]; 298.2 K) [kg/m3] | mass density ([1]; 303.2 K) [kg/m3] | mass density ([1]; 308.2 K) [kg/m3] | mass density ([1]; 313.2 K) [kg/m3] | mass density ([1]; 318.2 K) [kg/m3] | mass density ([2]; 298.2 K, x1 = 2.41e-07) [kg/m3] | mass density ([2]; 303.2 K, x1 = 3.11e-07) [kg/m3] | mass density ([2]; 308.2 K, x1 = 4.32e-07) [kg/m3] | mass density ([2]; 313.2 K, x1 = 5.86e-07) [kg/m3] | mass density ([2]; 318.2 K, x1 = 6.93e-07) [kg/m3] | Structure (SMILES) |
| --- | --- | --- | --- | --- | --- | --- | --- | --- | --- | --- |
| 1000 ± 2 | 996 ± 2 | 993 ± 2 | 991 ± 2 | 989 ± 2 |  |  |  |  |  | O [water] |
|  |  |  |  |  | 1000 ± 5 | 996 ± 6 | 993 ± 13 | 991 ± 2 | 989 ± 2 | CCCCCCCCCC(=O)OCCN1CCN(CCCN2c3ccccc3Sc3ccc(C(F)(F)F)cc32)CC1 + O |
